Measurements taken from PubChem BioAssay (NCI).
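48-hour exposure; five concentrations; linearly interpolated endpoints. TGI is the concentration that stops growth completely.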

Experiments:
Experiment in all cases: NCI-60 cell line screen, 48 h
OVCAR-5 ovarian = system: OVCAR-5 ovarian
OVCAR-4 ovarian = system: OVCAR-4 ovarian
COLO 205 colon = system: COLO 205 colon
786-0 renal = system: 786-0 renal
MDA-MB-231 breast = system: MDA-MB-231 breast
HCT-15 colon = system: HCT-15 colon
TK-10 renal = system: TK-10 renal
PC-3 prostate = system: PC-3 prostate
DU-145 prostate = system: DU-145 prostate
MCF7 breast = system: MCF7 breast
SF-268 CNS = system: SF-268 CNS
LOX IMVI melanoma = system: LOX IMVI melanoma
A498 renal = system: A498 renal
UACC-62 melanoma = system: UACC-62 melanoma

| Structure (SMILES) | TGI (OVCAR-5 ovarian) [µM] | TGI (OVCAR-4 ovarian) [µM] | TGI (COLO 205 colon) [µM] | TGI (786-0 renal) [µM] | TGI (MDA-MB-231 breast) [µM] | TGI (HCT-15 colon) [µM] | TGI (TK-10 renal) [µM] | TGI (PC-3 prostate) [µM] | TGI (DU-145 prostate) [µM] | TGI (MCF7 breast) [µM] | TGI (SF-268 CNS) [µM] | TGI (LOX IMVI melanoma) [µM] | TGI (A498 renal) [µM] | TGI (UACC-62 melanoma) [µM] |
| --- | --- | --- | --- | --- | --- | --- | --- | --- | --- | --- | --- | --- | --- | --- |
| C(=Nc1ccc(-c2nc3ccccc3[nH]2)cc1)c1cccs1 | > 100 | > 100 | > 100 | > 100 | > 100 | > 100 | > 100 | > 100 | > 100 | > 100 | > 100 | > 100 | > 100 |  |
| Cc1cc(S(=O)(=O)N=C2N(Cc3ccccc3)CCN2Cc2ccccc2)c(S)cc1Cl | > 100 | > 100 | > 100 | > 100 | > 100 | > 100 | > 100 | > 100 | > 100 | > 100 | > 100 | > 100 | > 100 | > 100 |
| CCOC(=O)C(=Cc1[nH]c2ccccc2c1-c1c[nH]c2ccccc12)C(=O)OCC | 30.3 | 20.3 | 40.8 | 7.15 | 39.3 | 43.9 | 26.1 | 25 | 27.1 | 22.2 | 30.5 | 26.7 | 28.6 | 19.4 |
| O=C1CSC(c2cccc(Oc3ccccc3)c2)N1c1ccc(Cl)cc1 (configuration not stated) | > 100 | > 100 | 35.5 | > 100 | > 100 | > 100 | 71.9 | > 100 | > 100 | 38.5 | > 100 | 50.9 | 47.6 | 34.2 |
| CCN(CC)C(=S)N/N=C(/C)c1cccc(/C(C)=N\NC(=S)N(CC)CC)n1 | 20.8 | 7.32 | 11.3 | 11.5 | 7.64 | 17.1 | 11.7 | 17 | 4.83 | 5.3 | 7.47 | 7.36 | 4.16 | 8.15 |
| CCOC(=O)N/N=C(/N)c1cccc([N+](=O)[O-])c1 | > 100 | > 100 | > 100 | > 100 | > 100 | > 100 | > 100 | > 100 | > 100 | > 100 | > 100 | > 100 | > 100 | > 100 |
| O=C(O)Cc1cccc2c(=O)c3ccccc3oc12 |  | > 100 | > 100 | > 100 | > 100 | > 100 | > 100 | > 100 | > 100 | > 100 | > 100 | > 100 | > 100 | 77.2 |
| COC[C@@H](C[C@H]1O[C@@](O)([C@H](O)[C@@H]2C[C@H](OC)[C@@H](O)CC/C=C(C)/C=C/[C@@H](O[C@@H]3O[C@@H](C)[C@H](OC)[C@@H](O)[C@@H]3O)[C@H](C)/C=C(C)/C=C(C)/C=C(\C)C(=O)O2)[C@H](C)[C@@H](O)[C@H]1C)O[C@H]1C[C@](C)(O)[C@@H](O[C@H]2C[C@@H](OC)[C@H](O)[C@@H](C)O2)C(C)O1 (some centres not stated) | > 100 | > 100 | > 100 | > 100 | > 100 | > 100 | > 100 | > 100 | > 100 | > 100 | > 100 | > 100 | > 100 | > 100 |
| Nc1nc(N)c2ncn(-c3ccc(Cl)cc3)c2n1 | > 100 | > 100 | > 100 | > 100 | > 100 | > 100 | > 100 | > 100 | > 100 | > 100 |  | > 100 | 83.5 | > 100 |
| CCCCN1C(=O)N(c2ccc(OCC)cc2)C2N(CCCC)C1C(C)(C)C2(C)C (configuration not stated) |  | > 100 | 70 | > 100 | > 100 | > 100 | 60.2 | > 100 | > 100 | 47.5 | 67.7 | > 100 | > 100 | 50 |
| O=C1CC(=Nc2ccc(Cl)cc2)C(c2ccccc2)N1c1ccccc1 (configuration not stated) |  | > 100 | 16.4 | > 100 | 85.2 | > 100 | > 100 | > 100 | 53 | > 100 | > 100 | 61.5 | > 100 | 6.6 |
| CCOP(C)(=O)C(N)Cc1ccc(OC)c(OC)c1 (configuration not stated) |  | > 100 | > 100 | > 100 | > 100 | > 100 | > 100 | > 100 | > 100 | > 100 | > 100 | > 100 | > 100 | > 100 |
